From the NIST ThermoML archive (doi:10.1016/j.fluid.2014.04.038)
Several values for one entry are separate records, joined by “and”; a condition that tells them apart may be missing. Equal values may be shown once.

Conditions: Hot wire method

CCF [fluoroethane]
Conditions | thermal conductivity [W/m/K]
327.04 K, 1095.3 kPa, Gas | 0.01963
327.1 K, 807.3 kPa, Gas | 0.01901
327.1 K, 968 kPa, Gas | 0.01947
327.18 K, 798.3 kPa, Gas | 0.01958
327.49 K, 616.5 kPa, Gas | 0.01891
327.67 K, 420.8 kPa, Gas | 0.01907
327.88 K, 999.2 kPa, Gas | 0.01944
328.12 K, 807.3 kPa, Gas | 0.01964
328.26 K, 616.5 kPa, Gas | 0.0193
328.79 K, 420.8 kPa, Gas | 0.01938
332.17 K, 969.9 kPa, Gas | 0.02009
332.31 K, 756.8 kPa, Gas | 0.01954
332.66 K, 396.8 kPa, Gas | 0.01951
332.66 K, 969.9 kPa, Gas | 0.02013
333.3 K, 756.8 kPa, Gas | 0.01971
333.74 K, 396.8 kPa, Gas | 0.01972
336.09 K, 1491 kPa, Gas | 0.02082
336.27 K, 1198.3 kPa, Gas | 0.02033
336.49 K, 1758.2 kPa, Gas | 0.02175
336.67 K, 1491 kPa, Gas | 0.02077
336.83 K, 865.8 kPa, Gas | 0.01986
336.9 K, 1198.3 kPa, Gas | 0.02068
336.91 K, 706.3 kPa, Gas | 0.01983
337.06 K, 1758.2 kPa, Gas | 0.02164
337.27 K, 1491 kPa, Gas | 0.0208
337.33 K, 480.3 kPa, Gas | 0.02
337.56 K, 1198.3 kPa, Gas | 0.02055
337.61 K, 206.2 kPa, Gas | 0.02003
337.81 K, 865.8 kPa, Gas | 0.01999
337.89 K, 706.3 kPa, Gas | 0.01991
338.08 K, 480.3 kPa, Gas | 0.01991
338.76 K, 206.2 kPa, Gas | 0.02026
345.5 K, 2260 kPa, Gas | 0.0234
345.62 K, 2008 kPa, Gas | 0.02287
345.73 K, 1253.4 kPa, Gas | 0.02123
345.76 K, 1802.5 kPa, Gas | 0.02255
345.91 K, 1001.2 kPa, Gas | 0.0213
346.04 K, 748.6 kPa, Gas | 0.02153
346.17 K, 2008 kPa, Gas | 0.02305
346.18 K, 454.4 kPa, Gas | 0.02091
346.2 K, 1802.5 kPa, Gas | 0.02205
346.23 K, 2260 kPa, Gas | 0.02334
346.43 K, 1560.1 kPa, Gas | 0.02199
346.52 K, 1253.4 kPa, Gas | 0.02134
346.59 K, 250.1 kPa, Gas | 0.02108
346.68 K, 1001.2 kPa, Gas | 0.02108
346.83 K, 454.4 kPa, Gas | 0.02085
346.87 K, 2260 kPa, Gas | 0.02339
346.91 K, 748.6 kPa, Gas | 0.02154
347.13 K, 2008 kPa, Gas | 0.02317
347.22 K, 1802.5 kPa, Gas | 0.02234
347.3 K, 250.1 kPa, Gas | 0.02135
347.67 K, 1560.1 kPa, Gas | 0.02199
347.86 K, 1253.4 kPa, Gas | 0.02137
348.08 K, 1001.2 kPa, Gas | 0.02122
348.34 K, 748.6 kPa, Gas | 0.02136
348.4 K, 250.1 kPa, Gas | 0.0215
348.67 K, 454.4 kPa, Gas | 0.02127
355.01 K, 2934.5 kPa, Gas | 0.02654
355.38 K, 2586.5 kPa, Gas | 0.02498
355.41 K, 2277.9 kPa, Gas | 0.02422
355.59 K, 2007.1 kPa, Gas | 0.02432
355.72 K, 1531.1 kPa, Gas | 0.02295
355.79 K, 2586.5 kPa, Gas | 0.02513
355.91 K, 2277.9 kPa, Gas | 0.02436
355.95 K, 2934.5 kPa, Gas | 0.0265
355.99 K, 1034.8 kPa, Gas | 0.02302
356.06 K, 2007.1 kPa, Gas | 0.02406
356.17 K, 611.2 kPa, Gas | 0.02275
356.26 K, 2586.5 kPa, Gas | 0.02498
356.27 K, 1531.1 kPa, Gas | 0.02331
356.32 K, 266.7 kPa, Gas | 0.02267
356.52 K, 2277.9 kPa, Gas | 0.02412
356.55 K, 1034.8 kPa, Gas | 0.0229
356.73 K, 2007.1 kPa, Gas | 0.02363
356.82 K, 611.2 kPa, Gas | 0.02305
357.02 K, 266.7 kPa, Gas | 0.02276
357.06 K, 1531.1 kPa, Gas | 0.02299
357.39 K, 1034.8 kPa, Gas | 0.02287
357.69 K, 611.2 kPa, Gas | 0.02264
357.98 K, 266.7 kPa, Gas | 0.02298
364.77 K, 3438 kPa, Gas | 0.02941
364.87 K, 3960.3 kPa, Gas | 0.03259
365.05 K, 2942.4 kPa, Gas | 0.02781
365.11 K, 3438 kPa, Gas | 0.02942
365.43 K, 2942.4 kPa, Gas | 0.02721
365.62 K, 2506.8 kPa, Gas | 0.0257
365.62 K, 3718.5 kPa, Gas | 0.03133
365.65 K, 3438 kPa, Gas | 0.02965
365.98 K, 2942.4 kPa, Gas | 0.027
365.99 K, 2001.8 kPa, Gas | 0.02478
366.21 K, 2506.8 kPa, Gas | 0.02572
366.21 K, 3718.5 kPa, Gas | 0.03142
366.29 K, 533.7 kPa, Gas | 0.02342
366.42 K, 1515.5 kPa, Gas | 0.02467
366.63 K, 1029 kPa, Gas | 0.0243
366.67 K, 2001.8 kPa, Gas | 0.02473
366.76 K, 2506.8 kPa, Gas | 0.02558
367.1 K, 1515.5 kPa, Gas | 0.02393
367.32 K, 2001.8 kPa, Gas | 0.02511
367.38 K, 533.7 kPa, Gas | 0.0242
367.49 K, 1029 kPa, Gas | 0.02463
368.3 K, 533.7 kPa, Gas | 0.02352
368.41 K, 1515.5 kPa, Gas | 0.02402
368.9 K, 1029 kPa, Gas | 0.02415
373.83 K, 4470.3 kPa, Gas | 0.03726
373.99 K, 4470.3 kPa, Gas | 0.03714
374.47 K, 4470.3 kPa, Gas | 0.03687
374.48 K, 2938.6 kPa, Gas | 0.02793
374.62 K, 2478.9 kPa, Gas | 0.02638
374.67 K, 3543.9 kPa, Gas | 0.03045
374.7 K, 2119.8 kPa, Gas | 0.02585
374.85 K, 1564.8 kPa, Gas | 0.02515
375.05 K, 2938.6 kPa, Gas | 0.02813
375.25 K, 2119.8 kPa, Gas | 0.02574
375.37 K, 364.6 kPa, Gas | 0.02485
375.68 K, 1564.8 kPa, Gas | 0.0258
375.8 K, 2478.9 kPa, Gas | 0.02745
375.94 K, 2119.8 kPa, Gas | 0.02613
376.1 K, 887.8 kPa, Gas | 0.02494
376.18 K, 1564.8 kPa, Gas | 0.02555
376.41 K, 364.6 kPa, Gas | 0.02448
376.83 K, 887.8 kPa, Gas | 0.02525
377.08 K, 364.6 kPa, Gas | 0.02454
377.36 K, 5247.3 kPa, Fluid (supercritical or subcritical phases) | 0.07905
377.63 K, 5247.3 kPa, Fluid (supercritical or subcritical phases) | 0.08228
377.73 K, 5247.3 kPa, Fluid (supercritical or subcritical phases) | 0.08638
380.51 K, 5230.1 kPa, Fluid (supercritical or subcritical phases) | 0.05046

Liquid
Conditions | thermal conductivity
334.87 K | 0.09073 W/m/K and 0.09116 W/m/K and 0.09121 W/m/K
335.25 K | 0.09091 W/m/K and 0.09082 W/m/K
335.26 K | 0.09123 W/m/K
335.66 K | 0.09055 W/m/K and 0.09054 W/m/K
335.67 K | 0.09089 W/m/K
344.8 K | 0.08543 W/m/K
344.82 K | 0.08529 W/m/K and 0.08532 W/m/K
345.2 K | 0.08496 W/m/K
345.21 K | 0.08506 W/m/K and 0.08519 W/m/K
345.68 K | 0.08484 W/m/K
345.7 K | 0.08488 W/m/K
345.72 K | 0.08489 W/m/K
354.61 K | 0.081 W/m/K
354.62 K | 0.08121 W/m/K and 0.08127 W/m/K
354.87 K | 0.08113 W/m/K
354.88 K | 0.08093 W/m/K and 0.08129 W/m/K
354.89 K | 0.08101 W/m/K
354.97 K | 0.08115 W/m/K
354.99 K | 0.08085 W/m/K
355 K | 0.08097 W/m/K
355.29 K | 0.0807 W/m/K and 0.08094 W/m/K
355.3 K | 0.08092 W/m/K
355.37 K | 0.08104 W/m/K
355.38 K | 0.08142 W/m/K and 0.08125 W/m/K
355.7 K | 0.08043 W/m/K and 0.08031 W/m/K
355.71 K | 0.08044 W/m/K
364.69 K | 0.07657 W/m/K
364.71 K | 0.07768 W/m/K
364.75 K | 0.07676 W/m/K
365.06 K | 0.07678 W/m/K
365.08 K | 0.07679 W/m/K and 0.07656 W/m/K
365.47 K | 0.07603 W/m/K
365.52 K | 0.07616 W/m/K
365.53 K | 0.07615 W/m/K
374.47 K | 0.07323 W/m/K
374.48 K | 0.07368 W/m/K and 0.07356 W/m/K
374.81 K | 0.07343 W/m/K and 0.07344 W/m/K
374.82 K | 0.07343 W/m/K
375.2 K | 0.07321 W/m/K
375.21 K | 0.07381 W/m/K and 0.07357 W/m/K
